Legend:
[1] = system: [^125 I]-2-iodomelatonin binding; details: comparative study; Copinga et al, J.Med. Chem., 1993, 36, 2891; cited from earlier work
[2] = system: forskolin-stimulated accumulation of cAMP; experiment: Cyclic AMP accumulation in intact cells (block of forskolin-stimulated accumulation of cAMP); assay type: cell-based; details: for EC50: 10 min, 37° C.; for Emax: relative to melatonin, read-out: I.A. (Intrinsic Activity) = Emax (experimental compound)/Emax (melatonin)
Description: Further, the compounds are agonists as determined by their ability, like melatonin, to block the forskolin-stimulated accumulation of cAMP in certain cells.
Measurement of Functional Activity
Cyclic AMP Accumalation in Intact Cells: Melatonin
Remove media from cell flask and wash with Hank's salt solution or PBS as appropriate. Detach cells from flask using whatever means are used when splitting. Add enough media so that the concentration of cells is 4×10^5 /ml when counted with a hemocytometer (40 cells in the center square). This concentration of cells can Vary depending on the ultimate cAMP response of the type of cells used. Also, dialyzed fetal bovine serum (FBS) or heat inactivated FBS should be used in the-media when plating the cells in case endogenous substances are present in the FBS that might interfere with the test. Add 1 ml of cell suspension to each well (4×10^5 cells/well), then 2 mls of media and incubate cells overnight.
SOLUTIONS needed for cyclase:
1. Stock solution: plain media (no serum or additives) +20mM HEPES. (500 ml bottle media+10 mls of 1M HEPES GIBCO stock). This solution can be refrigerated and reused.
2. IBMX solution: media/HEPES+1 mM IBMX. (50 mls+11.1 mg IBMX, IBMX mw=222.2). This solution can be refrozen.
3. Assay solution: 90% stock solution+10% IBMX solution. Figure out the volume of solution needed for the assay. Each well gets 3 mls of assay solution for a preincubation and 3 mls for the actual assay, therefore, 6 mls/well. Each test condition is done in triplicate.
a) Basal 7 mls assay solution +[…]
b) Forskolin Stimulation: […]: 7 mls assay solution +[…] (stock solution in freezer, in DMSO)
c) Forskolin+competitor (melatonin): […]: 7 mls assay solution +[…]+desired concentration of competitor (melatonin). Solutions b) and c) can be combined when adding forskolin, then split before adding competitor.
All solutions should be warmed to 37° C. All test conditions are done in triplicate. Plates with cells are kept in a shallow 37° C. water bath throughout the reaction. Remove media from the wells and add 3 ml of preincubation media. After 10 min, remove that solution and add 3 mls of drug solution. After 10 min the media is removed and reaction stopped with 1 ml 0.1N HCl. Staggering the incubation is recommended. The preincubation step can be eliminated if the cells don't adhere well to the plate or the plates can be pretreated with extracellular matrix such as poly-D-lysine. Let samples set for at least an hour at room temperature. Remove 1 ml from dish and put into a microfuge tube. Do a 3 min spin to remove floating cells. Dilute 1:100 for RIA (this dilution will vary depending on the concentration curve of the RIA kit and the cAMP response and concentration of the cells). Do radioimmunoassay (Amersham: Cat.no. RPA.509).

[3] = system: rats; details: exogenous melatonin administration, Cassone, et al., 1986; cited from earlier work

COc1cccc(CCNC(C)=O)c1 [compound 10]
[125I]-2-iodomelatonin binding properties, in words [1]: markedly inferior

COc1ccc(F)c(/C=C\CNC(=O)C(C)C)c1 [Example 7, cis-N-[3-(2-Fluoro-5-methoxyphenyl)-2-propenyl]-2-methylpropanamide]
EC50 [2]: 120 nM | Emax [2]: 120%

COc1cc(CCCNC(=O)C2CC2)ccc1Cl [Example 30, N-[3-(4-Chloro-3-methoxyphenyl)propyl]-cyclopropane carboxamide]
EC50 [2]: 3.4 nM | Emax [2]: 98%

CCCC(=O)NCCCc1cccc(OC)c1 [Example 2, N-[3-(3-Methoxyphenyl)propyl]butanamide]
EC50 [2]: 4.9 nM | Emax [2]: 95%

COc1ccc2[nH]cc(CCNC(C)=O)c2c1 [melatonin, N-acetyl-5-methoxytryptamine]
synchronization of circadian rhythms [3]: found to synchronize circadian rhythms in rats
